Laboratory results as given in patent publication US7666996B2, “Casein derived peptides and uses thereof” (priority 2000, dated 2010).

Tests used:
[1] = test system: irradiated, bone marrow transplanted mice; experiment: Leukocyte and platelet reconstitution in bone marrow transplant recipient mice; format: in vivo; conditions: for enhancement of platelet counts over control mice: 3×10^6 cells, 10 days post-transplantation
Protocol: Leukocyte and platelet reconstitution in bone marrow transplant recipient Mice: BALB/c mice were sub-lethally irradiated at a source to skin distance of 70 cm, dosage of 50 cGy per minute, for a total of 600 cGy. The irradiated mice were […] casein, synthetic peptides derived from casein (13-26 amino acids, see Table 3 above), or human serum albumin (controls), following a double-blinded protocol. Leukocyte reconstitution was determined according to cell count in peripheral blood collected at indicated intervals from 6 to 12 days post treatment. Platelet reconstitution was determined by cell count in blood collected from the retro orbital plexus, into EDTA-containing vials, at indicated intervals from day 6 to day 15 post treatment. […]
In a third series of experiments, the mice were irradiated (800 cGy), reconstituted and injected intraperitoneally with 1.0 mg synthetic peptides derived from casein (peptides 3a and 4P, representing the first 6 and 12 amino acids of the N terminus of αS1 casein, respectively—see Table 3 above) daily, on days 4, 5, 6 and 7 post-transplantation. Platelet reconstitution was assayed at 10 and 12 days post-transplantation.
In a fourth series of experiments, F1 mice were irradiated (750 cGy), reconstituted with syngeneic bone marrow, and injected intravenously 24 hours later with 1 mg per mouse of synthetic peptides derived from casein representing amino acids 1-22 of the N terminus of αS1 casein. In addition, 2 (two) groups of mice were treated each with a natural fraction of αS1 casein position 1-23, and a fraction of peptides derived from natural κ-casein, representing amino acid coordinates 106-169 of κ-casein (SEQ ID NO: 27). WBC counts were conducted on days 5, 7, 10 and 12 post-transplantation.

[2] = test system: murine bone marrow progenitor cells; experiment: CFU-GEMM colonies from murine bone marrow cells, differential counts; format: cell-based
Protocol: Proliferation of megakaryocytes in multipotential colonies (CFU-GEMM) from murine bone marrow cells: Primary bone marrow cells (1×10^5 per ml) from 8-12 week-old C3H/HeJ […], 95% air, at 37° C. The medium, appropriate for the growth of multipotential colonies (CFU-GEMM), contained 1% BSA (Sigma), 10^−4 M thioglycerol (Sigma), 2.8×10^−4 M human transferrin (TF, Biological industries, Israel), 10% WEHI-CM as a source of IL-3 and 2 units per ml erythropoietin (rhEPO, R & D Systems, Minneapolis). […] They were picked with a micropipette, cytocentrifuged and stained with May-Grunwald-Giemsa for differential counts. At least 700 cells were counted for each preparation.
Proliferation of Dendritic cells in CFU-GEMM: Multipotent (CFU-GEMM) colonies grown from primary bone marrow cells as described for the assay of megakaryocyte proliferation above were collected, stained and counted for dendritic cells. At least 700 cells were counted for each preparation.
Proliferation of Plasma cells in CFU-GEMM: Multipotent (CFU-GEMM) colonies grown from primary bone marrow cells as described for the assay of megakaryocyte proliferation above were collected, stained and counted for plasma cells. At least 700 cells were counted for each preparation.
Proliferation of Macrophage Cells in CFU-GEMM: Multipotent (CFU-GEMM) colonies grown from primary bone marrow cells as described for the assay of megakaryocyte proliferation above were collected, stained and counted for macrophage cells. At least 700 cells were counted for each preparation.
Proliferation of Red Blood Cells in CFU-GEMM: Multipotent (CFU-GEMM) colonies grown from primary bone marrow cells as described for the assay of megakaryocyte proliferation above were collected, stained and counted for red blood cells. At least 700 cells were counted for each preparation.
Proliferation of Polymorphonuclear Cells (PMN) in CFU-GEMM: Multipotent (CFU-GEMM) colonies grown from primary bone marrow cells as described for the assay of megakaryocyte proliferation above were collected, stained and counted for polymorphonuclear cells. […]

[3] = test system: murine bone marrow progenitor cells; experiment: CFU-GM colony formation with IL-3 and G-CSF, murine bone marrow; format: cell-based
Protocol: Cells were scored in the macroscopic colonies grown from murine bone marrow cells prepared similarly to the CFU-GEMM colonies previously described. Cells were incubated with hematopoietic factors cytokine (IL-3) and colony stimulating factor (G-CSF), and 25 μg or more of synthetic peptides derived from casein (J), representing amino acids 1-22 of α-S1 casein, or 30-4, representing amino acids 1-6 of α-S1 casein, for 14 days, individually or in combination. The stimulation of colony formation (CFU) is expressed as the number of myeloid colonies in 10^5 plated MNCs.
Synthetic peptides derived from αS1-casein stimulate Granulopoietic (GM) cell proliferation in CFU-GM: As mentioned hereinabove, formation and expansion of CFU-GM (Granulocyte and Macrophage) colonies, and CFU-GEMM (Granulocyte, Erythroid, Macrophage and Megakaryocyte) colonies constitute one of the early events in the differentiation of hematopoietic progenitor cells in the bone marrow.

[4] = test system: Non-Obese Diabetic (NOD) mice; experiment: Glucosuria in Non-Obese Diabetic (NOD) mice; format: in vivo
Protocol: Juvenile (Type I, IDDM) diabetes in Non-Obese Diabetic (NOD) mice:
Peptides derived from natural casein: NOD mice are a commonly used model for research of autoimmune disease and human Juvenile Diabetes. Six week old female NOD mice received either one or two injections per week of 100 μg of peptides derived from natural casein, for a total of 5 or 10 treatments. Control mice received no treatment. The severity of disease was determined according to glucosuria, which was measured using Combi test sticks [Gross, D. J. et al (1994), Diabetology, 37:1195]. Results were expressed as the percent of glucosuria-free mice in each sample over a 365-day period.
Synthetic peptides derived from casein: In another experiment, 6 week old female NOD mice received one injection per week of 100 μg of Synthetic peptides derived from casein for a total of 5 treatments. Control mice received no treatment. Results were expressed as the number of healthy mice in the various treated groups.

[5] = test system: human bone marrow progenitor cells; experiment: CFU-GM colony formation with IL-3 and G-CSF, human bone marrow; format: cell-based; conditions: 100 μg/ml, 14 days
Protocol: Cells were scored in the macroscopic colonies grown from human bone marrow cells prepared similarly to the CFU-GEMM colonies previously described. Cells were incubated with hematopoietic factors cytokine (IL-3) and colony stimulating factor (G-CSF), and 25 μg or more of synthetic peptides derived from casein: peptide J, representing amino acids 1-22 of α-S1 casein. Exposure of the human bone marrow progenitor cells to peptides derived from casein was for 14 days. Stimulation of colony formation (CFU) is expressed as the number of myeloid colonies in 10^5 plated MNCs.
A similar effect of synthetic peptides derived from αS1 casein was observed on the proliferation of granulocytes and macrophages from human bone marrow progenitor cells. […] (FIG. 20). Thus, synthetic peptides derived from αS1 casein or combinations thereof are effective in augmenting the effect of granulopoitic factors such as G-CSF on bone marrow hematpoietic progenitor cell differentiation and expansion.

human bone marrow cells = experiment: Colony assays in cultured human bone marrow cells (CFU-GM, MK, BFU-E, CFU-GEMM); format: cell-based; conditions: 100 μg/ml synthetic peptide in the presence of EPO
Protocol: Proliferation of megakaryocyte- and erythroid forming cells from human bone marrow and cord blood cells: A sample of bone marrow from an apparently healthy human being was processed by density gradient separation using Histopaque-107 (Sigma Diagnostics) to obtain a purified population of mononuclear cells (MNC). Colony assays were performed in a plating medium containing final concentrations of 0.92% methyl cellulose (4000 centripase powder, Sigma Diagnostic), rehydrated in Iscoves modified Dulbecco's medium containing 36 mM sodium bicarbonate (Gibco), 30% fetal bovine serum (FBS) (Hyclone), 0.292 mg/ml glutamine, 100 units per ml penicillin and 0.01 mg per ml streptomycin (Biological Industries, Beit Haemek). Cord blood from normal births was collected and prepared as mentioned above.
Colony assay medium containing 10^5 MNC per ml was plated in triplicate wells within a 24 well tissue culture plate (Greiner), 0.33 ml per well. The cultures were incubated at 37° C. in 5% CO2, 95% air and 55% relative humidity with or without peptides derived from natural casein or synthetic peptides derived from casein, at the indicated concentrations. Plates were scored after 14 days for colonies containing more than 50 cells. […]

In the case of “RPKHPIKHQGLPQEVLNENLLR [J, synthetic peptide, amino acids 1-22 of α-S1 casein]”, the “peripheral white blood cell counts, day 10” value ([1]; BALB/c, 600 cGy, 1 mg per mouse intraperitoneal, control 1.67) is reported as 2.74 ×10^6 cells per ml, the “peripheral white blood cell counts, day 12” value ([1]; BALB/c, 600 cGy, 1 mg per mouse intraperitoneal, control 4.64) is reported as 5.20 ×10^6 cells per ml and the “white blood cell reconstitution (in words)” value ([1]; F1 mice, 750 cGy, 1 mg i.v., days 5 and 7 post-reconstitution) is reported as “dramatic enhancement”. The “enhancement of platelet counts over control mice” value ([1]; F1 mice, 750 cGy, 1 mg i.v.) was over 25%, the “enhancement of platelet counts over control mice” value ([1]; F1 mice, 750 cGy, 1 mg i.v., listed as amino acids 1-22 of αS1-casein) was 34% and the “effect on Early (E.MK) megakaryocyte formation (in words)” value ([2]; 25 μg or more, 14 days) was “dramatic effect”. For the same sequence, the “increase in total megakaryocyte proliferation over controls” value ([2]; synthetic peptide, FIG. 21) was 57%, the “myelocyte formation with G-CSF and IL-3 (in words)” value ([3]; 25 μg or more, 14 days) was “synergistic increase” and the “increase in proliferation of granulocytes” value ([3]; in the presence of G-CSF) was 25%. The “Healthy/Total (sugar not detected in urine)” value ([4]; female NOD mice, 100 μg synthetic peptide once weekly for 5 weeks, evaluated after 25 weeks) was 3/5, the “Urine Sugar” value ([4]; individual healthy NOD mice, after 25 weeks) was “Negative” and the “enhancement of granulopoietic stimulating effect of G-CSF (myelocyte formation)” value [5] was over 50%.

For “RPKHPIKHQGLPQEVLNE [F, synthetic peptide, N-terminal 18 amino acids of αS1 casein]”, the “proliferation of erythroid cell precursors (BFU-E colonies) vs EPO alone” value (human bone marrow cells) was “one and one-half”.
